Experiments:
Type in all cases: cell-based, human
WEDE15 = experiment: TRAP-stimulated whole blood flow cytometry, WEDE15; settings: Mean ± SD
Protocol: (§1) The methodology employed was conventional aggregation induced by 5 μM ADP, 1 μg/ml collagen, 10 μM TRAP, whole blood aggregation with 1 μg/ml collagen, Ultegra, and PFA-100 Analyzers, expression of 14 intact, and TRAP-stimulated major receptors by whole blood flow cytometry were utilized to assess platelet activity after preincubation with escalating concentrations of E5555 (20 ng/ml, 50 ng/ml, and 100 ng/ml). The experiments were performed in healthy volunteers, CAD patients treated with ASA, and CAD patients treated with ASA and clopidogrel combination (n=10, for each group).
(§2) An Informed Consent was obtained from all volunteers. Drug users were excluded from data analysis. The study was approved by Quorum Institutional Review Board. All subjects underwent blood sampling after at least 30 minutes of rest and two or more hours of fasting. Blood (28 ml) was drawn between 8 and 10 a.m. in order to avoid any diurnal influence and sampled from an antecubital vein using a 21-gauge butterfly needle containing 3.2% sodium citrate (1:9 volume) after having discarded the first 1.5 ml of free running blood. Four Vacutainer tubes (7.0 ml) were collected for a total of 28 ml of whole blood-citrate mixture from each study participant. Chronologically, blood samples were delivered to the core laboratory facility within 45 minutes after drawing. Then all tubes of blood-citrate mixture were pooled. One portion of pooled blood (5 ml) was kept as an internal control and pretreated with the vehicle. The remaining blood (23 ml) was used for the in vitro exposure to E5555 at concentrations of 20 ng/ml, 50 ng/ml, and 100 ng/ml. […] The platelet aggregation studies, Rapid Analyzers measures, and flow cytometry preparations were initiated within no more than 110 minutes following the blood draw, incubation with the drug, and preparation of the samples.
(§3) Formation of platelet-leukocyte aggregates was assessed by dual labeling with pan-platelet marker (CD151), and then with CD14, the macrophage receptor for endotoxin lipopolysaccharides (PharMingen, and Coulter, San Diego, Calif., USA). The tubes were then covered with aluminum foil and incubated at 37° C. for 40 minutes with gentle rotation. After incubation, samples were immediately analyzed on a Becton Dickinson FACScan flow cytometer. The instrument was set up to measure forward light scatter, and FITC fluorescence. All parameters were collected using four-decade logarithmic amplification. The data was retrieved in list mode files and then analyzed. P selectin was expressed as percent positive cells. Other antigens were expressed as log mean fluorescence intensity.
(§4) For flow cytometry (TRAP-stimulated) all of the above flow cytometry experiments were identically repeated utilizing prestimulation with 10 μmol/L TRAP for 5 minutes at 37° C. To determine statistics, a Paired Sign Test was used to define significance of differences between vehicle and E5555-treated groups. The Mann-Whitney U test was used to analyze nonparametric data. Normally distributed data were expressed as mean±standard error (m±SE), and skewed data as median (range). All P-values were two sided. All analysis was performed using the SPSS v9.0 program (SPSS Inc., Chicago, Ill.).

LAMP-3 (CD63) = experiment: Unstimulated whole blood flow cytometry, LAMP-3; settings: for LAMP-3 (CD63), Mean Fluorescence Intensity: unstimulated, Mean ± SD
Protocol: as §1, §2, §3

GP37 (CD165) = experiment: TRAP-stimulated whole blood flow cytometry, GP37; settings: Mean ± SD
Protocol: as §1, §2, §3, §4

PMA (CD14 + CD151) = experiment: Unstimulated whole blood flow cytometry, platelet-monocyte aggregates; settings: for PMA (CD14 + CD151), Mean Fluorescence Intensity: unstimulated, Mean ± SD
Protocol: as §1, §2, §3

PAC-1 (GPIIb/IIIa) = experiment: TRAP-stimulated whole blood flow cytometry, PAC-1; settings: Mean ± SD
Protocol: as §1, §2, §3, §4

[1] = E5555 20 ng/ml, Patients (ASA + C)
[2] = E5555 50 ng/ml, Patients (ASA + C)
[3] = E5555 100 ng/ml, Patients (ASA + C)
[4] = E5555 100 ng/ml, Patients (ASA)
[5] = overall summary, stimulation not stated

Br.CCOc1cc2c(c(F)c1OCC)C(=N)N(CC(=O)c1cc(N3CCOCC3)c(OC)c(C(C)(C)C)c1)C2 [E5555, 1-(3-tert-butyl-4-methoxy-5-morpholinophenyl)-2-(5,6-diethoxy-7-fluoro-1-imino-1,3-dihydro-2H-isoindol-2-yl)ethanone hydrobromide]
WEDE15, Mean Fluorescence Intensity (WEDE15; [1]): 33 ± 5 MFI | WEDE15, Mean Fluorescence Intensity (WEDE15; E5555 20 ng/ml, Patients (ASA)): 38 ± 6 MFI | WEDE15, Mean Fluorescence Intensity (WEDE15; E5555 20 ng/ml, Volunteers): 40 ± 7 MFI | WEDE15, Mean Fluorescence Intensity (WEDE15; [2]): 34 ± 6 MFI | WEDE15, Mean Fluorescence Intensity (WEDE15; E5555 50 ng/ml, Patients (ASA)): 39 ± 6 MFI | WEDE15, Mean Fluorescence Intensity (WEDE15; E5555 50 ng/ml, Volunteers): 40 ± 5 MFI | WEDE15, Mean Fluorescence Intensity (WEDE15; [3]): 33 ± 6 MFI | WEDE15, Mean Fluorescence Intensity (WEDE15; [4]): 40 ± 8 MFI | WEDE15, Mean Fluorescence Intensity (WEDE15; E5555 100 ng/ml, Volunteers): 40 ± 8 MFI | LAMP, effect in words (LAMP-3 (CD63); [5]): not affected | LAMP-3 (CD63), Mean Fluorescence Intensity (LAMP-3 (CD63); [1]): 7.2 ± 1.3 MFI | LAMP-3 (CD63), Mean Fluorescence Intensity (LAMP-3 (CD63); E5555 20 ng/ml, Patients (ASA)): 7.0 ± 1.6 MFI | LAMP-3 (CD63), Mean Fluorescence Intensity (LAMP-3 (CD63); E5555 20 ng/ml, Volunteers): 8.1 ± 2.0 MFI | LAMP-3 (CD63), Mean Fluorescence Intensity (LAMP-3 (CD63); [2]): 7.0 ± 1.7 MFI | LAMP-3 (CD63), Mean Fluorescence Intensity (LAMP-3 (CD63); E5555 50 ng/ml, Patients (ASA)): 7.2 ± 1.5 MFI | LAMP-3 (CD63), Mean Fluorescence Intensity (LAMP-3 (CD63); E5555 50 ng/ml, Volunteers): 8.0 ± 1.7 MFI | LAMP-3 (CD63), Mean Fluorescence Intensity (LAMP-3 (CD63); [3]): 6.9 ± 1.8 MFI | LAMP-3 (CD63), Mean Fluorescence Intensity (LAMP-3 (CD63); [4]): 6.5 ± 1.9 MFI | LAMP-3 (CD63), Mean Fluorescence Intensity (LAMP-3 (CD63); E5555 100 ng/ml, Volunteers): 7.7 ± 2.1 MFI | GP37 (CD165), Mean Fluorescence Intensity (GP37 (CD165); [1]): 27 ± 4 MFI | GP37 (CD165), Mean Fluorescence Intensity (GP37 (CD165); E5555 20 ng/ml, Patients (ASA)): 27 ± 5 MFI | GP37 (CD165), Mean Fluorescence Intensity (GP37 (CD165); E5555 20 ng/ml, Volunteers): 32 ± 6 MFI | GP37 (CD165), Mean Fluorescence Intensity (GP37 (CD165); [2]): 18 ± 4 MFI | GP37 (CD165), Mean Fluorescence Intensity (GP37 (CD165); E5555 50 ng/ml, Patients (ASA)): 20 ± 7 MFI | GP37 (CD165), Mean Fluorescence Intensity (GP37 (CD165); E5555 50 ng/ml, Volunteers): 28 ± 5 MFI | GP37 (CD165), Mean Fluorescence Intensity (GP37 (CD165); [3]): 21 ± 9 MFI | GP37 (CD165), Mean Fluorescence Intensity (GP37 (CD165); [4]): 22 ± 6 MFI | GP37 (CD165), Mean Fluorescence Intensity (GP37 (CD165); E5555 100 ng/ml, Volunteers): 29 ± 4 MFI | Formation of platelet-monocyte aggregates, effect in words (PMA (CD14 + CD151); [5]): significantly reduced | PMA (CD14 + CD151), Mean Fluorescence Intensity (PMA (CD14 + CD151); [1]): 104 ± 16 MFI | PMA (CD14 + CD151), Mean Fluorescence Intensity (PMA (CD14 + CD151); E5555 20 ng/ml, Patients (ASA)): 114 ± 18 MFI | PMA (CD14 + CD151), Mean Fluorescence Intensity (PMA (CD14 + CD151); E5555 20 ng/ml, Volunteers): 130 ± 16 MFI | PMA (CD14 + CD151), Mean Fluorescence Intensity (PMA (CD14 + CD151); [2]): 100 ± 27 MFI | PMA (CD14 + CD151), Mean Fluorescence Intensity (PMA (CD14 + CD151); E5555 50 ng/ml, Patients (ASA)): 114 ± 19 MFI | PMA (CD14 + CD151), Mean Fluorescence Intensity (PMA (CD14 + CD151); E5555 50 ng/ml, Volunteers): 128 ± 18 MFI | PMA (CD14 + CD151), Mean Fluorescence Intensity (PMA (CD14 + CD151); [3]): 105 ± 21 MFI | PMA (CD14 + CD151), Mean Fluorescence Intensity (PMA (CD14 + CD151); [4]): 107 ± 20 MFI | PMA (CD14 + CD151), Mean Fluorescence Intensity (PMA (CD14 + CD151); E5555 100 ng/ml, Volunteers): 124 ± 23 MFI | PAC-1 (GPIIb/IIIa), Mean Fluorescence Intensity (PAC-1 (GPIIb/IIIa); [1]): 41 ± 5 MFI | PAC-1 (GPIIb/IIIa), Mean Fluorescence Intensity (PAC-1 (GPIIb/IIIa); E5555 20 ng/ml, Patients (ASA)): 52 ± 6 MFI | PAC-1 (GPIIb/IIIa), Mean Fluorescence Intensity (PAC-1 (GPIIb/IIIa); E5555 20 ng/ml, Volunteers): 68 ± 8 MFI | PAC-1 (GPIIb/IIIa), Mean Fluorescence Intensity (PAC-1 (GPIIb/IIIa); [2]): 9 ± 1 MFI
